Assay [1] has as its target T1, cGMP-specific 3',5'-cyclic phosphodiesterase (Bos taurus, UniProt Q28156). Description: Optimum inhibitory concentration required to inhibit c-GMP specific Phosphodiesterase 5 (PDE5) of bovine lung.
The target in assay [2] is Dual specificity calcium/calmodulin-dependent 3',5'-cyclic nucleotide phosphodiesterase 1A (Bos taurus, UniProt P14100). Description: Optimum inhibitory concentration required to inhibit c-GMP specific phosphodiesterase 1 (PDE1) of bovine aorta.
Sequence of Dual specificity calcium/calmodulin-dependent 3',5'-cyclic nucleotide phosphodiesterase 1A (P14100 whole entry): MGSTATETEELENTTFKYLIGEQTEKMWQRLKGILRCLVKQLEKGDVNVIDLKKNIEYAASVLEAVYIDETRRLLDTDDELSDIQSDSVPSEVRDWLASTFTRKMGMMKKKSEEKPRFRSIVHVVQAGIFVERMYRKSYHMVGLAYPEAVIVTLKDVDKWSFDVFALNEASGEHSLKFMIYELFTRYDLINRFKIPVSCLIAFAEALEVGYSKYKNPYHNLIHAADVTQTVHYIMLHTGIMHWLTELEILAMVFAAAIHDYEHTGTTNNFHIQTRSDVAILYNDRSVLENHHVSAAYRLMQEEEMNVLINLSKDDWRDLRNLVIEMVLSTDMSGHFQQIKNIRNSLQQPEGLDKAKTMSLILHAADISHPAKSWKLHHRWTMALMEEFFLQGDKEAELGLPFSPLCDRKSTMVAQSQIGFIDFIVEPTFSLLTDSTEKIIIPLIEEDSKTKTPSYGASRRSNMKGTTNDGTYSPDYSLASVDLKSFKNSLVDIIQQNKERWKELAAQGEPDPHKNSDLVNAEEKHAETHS
Assay [3] addresses T2, Phosphodiesterase 3 (Homo sapiens, UniProt Q14432+Q13370). Description: Optimum inhibitory concentration required to inhibit […] (PDE3). It is filed as protein assay.
Assay [4] has as its target T1, cGMP-specific 3',5'-cyclic phosphodiesterase. The assay can be described thus: Inhibition of c-GMP specific phosphodiesterase PDE5 of bovine lung.
The target in assay [5] is T2, Phosphodiesterase 3. Description: Inhibition of cGMP-inhibited phosphodiesterase 3 (PDE3). It is filed as protein assay.

The record followed here is ChEMBL document CHEMBL1131701, “Synthesis and evaluation of potent and selective c-GMP phosphodiesterase inhibitors” (Bioorg Med Chem Lett, 1999).

One may read the IC50 as the midpoint of a concentration-inhibition curve.

For the compound `CCCCc1nc2c([nH]1)N1C(=N[C@@H]3CCC[C@@H]31)N(C)C2=O`, the IC50 was found to be 140 nM in assay [1], 110 nM in assay [2] and 38000 nM in assay [3].

For the compound `CC(C)CCCc1nc2c([nH]1)N1C[C@@H](C(C)C)N=C1N(C)C2=O`, the values for the IC50 in assay [1], in assay [2] and in assay [3] were 6 nM, 12 nM and 65000 nM, respectively.

Consider `CC(C)CCc1nc2c([nH]1)N1C(=N[C@@H]3CCC[C@@H]31)N(C)C2=O`, for which the IC50 in assay [2] was 14 nM; in assay [3], 15000 nM.

`CCCCCCc1nc2c([nH]1)N1C(=N[C@@H]3CCC[C@@H]31)N(C)C2=O`: the IC50 in assay [2] turned out to be 36 nM; in assay [3], 12000 nM.

With `CCCCCCCCc1nc2c([nH]1)N1C(=N[C@@H]3CCC[C@@H]31)N(C)C2=O`, the IC50 in assay [4] turned out to be 14 nM; in assay [5], 10000 nM; in assay [2], 33 nM.

Take `CCC(CC)c1nc2c([nH]1)N1C(=N[C@@H]3CCC[C@@H]31)N(C)C2=O`: the IC50 in assay [1] amounted to 1400 nM; in assay [2] it was 150 nM; in assay [3] it was 150000 nM.

As to `CCCCCCc1nc2c([nH]1)N1CC3(CCCC3)N=C1N(C)C2=O`, the figures for the IC50 in assay [1], in assay [2] and in assay [3] were 11 nM, 14 nM and 15000 nM, respectively.

Regarding `CCCCCc1nc2c([nH]1)N1C(=N[C@@H]3CCC[C@@H]31)N(C)C2=O`, the IC50 in assay [1] was determined as 40 nM; in assay [2] it was 31 nM; in assay [3], 20000 nM.

For the compound `CC(C)CCc1nc2c([nH]1)N1C[C@@H](C(C)C)N=C1N(C)C2=O`, the IC50 in assay [1] was 22 nM; in assay [2], 15 nM; in assay [3] it was 40000 nM.

With `CCCCCCc1nc2c([nH]1)N1C[C@@H](C(C)C)N=C1N(C)C2=O`, the figures for the IC50 in assay [1], in assay [2] and in assay [3] were 5 nM, 25 nM and 18000 nM, respectively.

In the case of `CCCc1nc2c([nH]1)N1C(=N[C@@H]3CCC[C@@H]31)N(C)C2=O`, the IC50 in assay [2] worked out at 350 nM; in assay [3], 80000 nM.

On to `CCCCCCCc1nc2c([nH]1)N1C(=N[C@@H]3CCC[C@@H]31)N(C)C2=O`, for which the IC50 in assay [1] was determined as 30 nM; in assay [2], 160 nM; in assay [3], 7000 nM.

Turning to `CC(C)CCCc1nc2c([nH]1)N1C(=N[C@@H]3CCC[C@@H]31)N(C)C2=O`, the IC50 in assay [1] was 10 nM; in assay [2] it was 6 nM; in assay [3], 35000 nM.

Consider `Cc1nc2c([nH]1)C(=O)N(C)C1=N[C@@H]3CCC[C@@H]3N12`, for which the IC50 is 1250 nM in assay [2] and greater than 300000 nM in assay [3].

On to `CCCC(CCC)c1nc2c([nH]1)N1C(=N[C@@H]3CCC[C@@H]31)N(C)C2=O`, for which the IC50 worked out at 150 nM in assay [1], 60 nM in assay [2] and 80000 nM in assay [3].

For `CCCCCCc1nc2c([nH]1)N1CC(C)(C)N=C1N(C)C2=O`, the IC50 in assay [1] turned out to be 8 nM; in assay [2], 25 nM; in assay [3] it was 28000 nM.

Consider `CCc1nc2c([nH]1)N1C(=N[C@@H]3CCC[C@@H]31)N(C)C2=O`, for which the IC50 in assay [1] amounted to 1200 nM; in assay [2], 295 nM; in assay [3], 150000 nM.
